Data as given in patent US20240228542A1, “LYTIC DOMAIN FUSION CONSTRUCTS, CHECKPOINT INHIBITORS, AND METHODS OF MAKING AND USING SAME” (A28 Therapeutics Inc., priority 2020, published 2024).

What was measured:
[1] = tested on: MDA-MB-435S.luc xenograft; assay: MDA-MB-435S.luc xenograft, βCG fusion constructs; type: in vivo, Nu/Nu mice; conditions: vs baseline and saline controls
Procedure: Female Nu/Nu mice were injected subcutaneously with a MDA-MB-435S.luc/Matrigel HC suspension (1×10^6 cells). In brief, treatment started on day 13 after tumor cell injection and continued on day 19 and 25. […] The doses for weekly injections were 5, 1 and 0.01 mg/kg body weight, given as a bolus single injection.
The effect of cytolytic peptide injections on the primary tumors is illustrated in FIG. 8. In brief, the FIGS. 8A-8C show tumor volume during the course of the study for each individual peptide. FIGS. 8D-8G show tumor characteristics at necropsy; tumor volume (D), tumor weight (E), live tumor cells (F), tumor conditions (G).
Treatment efficacy was calculated as difference between measurements at the beginning of treatment compared to the measurement at the end of study (FIG. 8H-8I). […] Viability of cells in the tumors was determined at the end of the study when tumors were measured for luciferase activity.

OVCAR-3 = assay: Cytotoxicity in OVCAR-3 ovarian cancer cells; type: cell-based; conditions: OVCAR-3 ovarian cancer cell line; read-out: IC50 in Human Cancer Cell Lines
Procedure: (§1) MDA-MB-435S.luc cells were grown in Leibovitz's L 15 medium, 10% fetal bovine serum, 0.01 mg/ml bovine insulin, 100 IU/ml penicillin, 100 microg/ml streptomycin. The cells were cultured in tight closed flasks. The incubations were conducted using 96 well plates at 10,000 cells per well. Cells were typically seeded into 96 well plates and media was replaced after 48 hours of incubation. Each assay was conducted at increasing concentrations of 0, 0.001, 0.01, 0.05, 0.1, 0.5, 1, 2, 5, 10 and 100 micromolar doses of lytic peptide-binding domain conjugate. Each lytic peptide-binding domain conjugate provided in lyophilized form and was freshly dissolved in saline and added to cells. The duration of incubation was typically 24 h, and cell viability assays were conducted using formazan conversion assays (MTT assay). Controls contained saline or 0.1% triton as reference for 0 and 100% cell death, respectively.
(§2) To ascertain the IC50 of various fusion constructs on different human cancer cell lines compared to cisplatinum, IC50 of fusion constructs were evaluated as in Table 3.

LNCaP = assay: Cytotoxicity in LNCaP prostate cancer cells; type: cell-based; conditions: LNCaP prostate cancer cell line; read-out: IC50 in Human Cancer Cell Lines
Procedure: as §1, §2

IG10 = assay: Cytotoxicity in IG10 murine ovarian cancer cells (24 h); type: cell-based; conditions: IG10, 24 h; read-out: In vitro activity (IC50)
Procedure: Murine ovarian cancer cell lines (ID8, IG10, IF5, and 2Cl2) were grown in RPMI 1640 media with 10% Fetal Bovine Serum. Cells were typically seeded (3000 cells per well) into 96 well plates and media was replaced after 48 hours of incubation. […] Phor18-LHRH was provided in lyophilized form was dissolved in saline and added to cells. The duration of incubation was 24 h at 37° C. Cell viability was assessed after 24 hours using a luminometric assays (Promega, CellTiter-0Glo 2.0, G9243). Controls contained saline or 0.1% triton as reference for 0 and 100% cell death, respectively.
Data were processed and analyzed using GraphPad Prism version 7.00 for Windows (GraphPad Software, San Diego California). Statistical analysis for significance was determined by a two-tailed Student's T-test. Each study was conducted to achieve an […] of at least 6.
In vitro activities were expressed as IC50 values for each cell line, time point and compound tested that were calculated using the Hill equation (Graph Pad Prizm software).

PD-L1 = PD-L1 expression in ID8 and IG10 cells after EP-100 (RT-PCR, Western blot); type: cell-based, murine
Procedure: To determine the potential role of EP-100 in immune activation, the effect on PD-L1 expression in murine ovarian cancer cells was determined in the presence of EP-100. […] PD-L1 mRNA was increased with treatment with as low as 0.5 μm EP-100 for 4 hours, and PD- L1 protein was increased after 6 hours of treatment.

[2] = tested on: EMT-6 murine mammary carcinoma; assay: EMT-6 murine mammary carcinoma syngeneic model, tumor growth delay; type: in vivo, BALB/c mice; conditions: for median TTE: control 16.5 days
Procedure: The present study consisted of six efficacy groups (n=10) and three sampling groups (n=5) of female BALB/c mice implanted with EMT-6 tumor cells (mean volume: 61-85 mm^3). Dosing was initiated on Day (D) 1 of the study, unless otherwise noted. […] Anti-CTLA-4 was administered i.p. at 100 μg/animal on Day 2 and 50 μg/animal on Day 5 and Day 8.
Group 1 mice served as controls and received i.v. saline (vehicle), qod×to end. Group 2 received anti-CTLA-4. Group 3 received Phor 18-LHRH at 0.4 μg/animal qod×8 followed by 20 μg/animal qod to end (starting on Day 17). […] Group 5 received Phor 18-LHRH at 0.4 μg/animal q.o.d.×8 followed by 20 μg/animal qod to end (starting on Day 17) in combination with anti-CTLA-4.
The study endpoint was a tumor volume of 2000 mm^3 or 45 days, whichever came first. Tumor measurements were taken twice weekly until D45 with individual animals exiting the study upon reaching the tumor volume endpoint.
Efficacy was determined from tumor growth delay (TGD), the increase in median time-to-endpoint (TTE) in treated versus control mice, and from comparison of survival curves using logrank analysis. Response was additionally evaluated based on the number of study survivors, partial regression (PR) and complete regression (CR) responses, and logrank significance of differences in survival. Tolerability of the various treatments was assessed by body weight (BW) measurements and frequent observation for clinical symptoms and treatment-related (TR) side effects.
Four sampling groups consisting of 5 animals each were included in this study: saline controls. […] Animals in these groups were sacrificed on day 17, tumors were excised, formalin fixed and paraffin embedded to obtain H&E stained sections for histological evaluation of the tumors. Tumor samples were collected for analysis and stained with hematoxylin & cosin for pathological evaluation.

[3] = Phor18-LHRH at 0.4 μg and 20 μg/animal (alone or with anti-CTLA-4)
[4] = Phor18-LHRH at 10 μg and 60 μg/animal (alone or with anti-CTLA-4)

Sequence	tumor volume [1]	IC50 (OVCAR-3)	IC50 (LNCaP)	IC50 (IG10)	lowest concentration increasing PD-L1 mRNA (PD-L1; 4 hours)	PD-L1 mRNA and protein levels (PD-L1; ID8 and IG10 cells, protein after 6 hours)	TGD [2, 3]	median TTE [2, 3]	TGD [2, 4]	median TTE [2, 4]	histological evaluation of tumors ([2]; animals sacrificed on day 17)
KFAKFAKKFAKFAKKFAK [Phor18, reference compound]	ineffective in reducing the xenograft volume										
KFAKFAKKFAKFAKKFAKQHWSYGLRPG [Phor18-LHRH]		3 µM	1.55 ± 0.08 µM	1.03 µM	0.5 μm	both PD-L1 mRNA and protein levels were increased	6%	17.5 days	5%	17.4 days	inflammatory immune cell infiltration and necrosis
